Laboratory results reported in patent publication US12043599B2, “Herbicidal compounds” (SYNGENTA PARTICIPATIONS AG, priority 2018, dated 2024).

What was measured:
Type in all cases: in vivo
Details in all cases: 250 g/h, evaluated after 13 days
Setaria faberi (SETFA) [1] = assay: Post-emergence herbicidal glasshouse test, percentage damage
In short: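 Percentage damage was scored 13 days after treatment on a five-point scale (1=0-19% to 5=80-100%). Treatments were post-emergence sprays on 8-day-old wheat, barley and SETFA plants in a glasshouse (24/16 °C day/night, 14 h light, 65% humidity), using acetone/water 50:50 with 0.5% Tween 20 at the stated rates. Wheat additionally received cloquintocet-mexyl safener at 50 g/ha.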

Avena fatua (AVEFA) [2] = assay: as above
In short: (§1)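 Five-point damage scores (5=80-100%, 1=0-19%) were recorded 13 days after application of 250 g/h. Treatment was pre-emergence (1 day after sowing) or post-emergence (8 days), and plants were kept at 24/16 °C, 14 h light, 65% humidity with twice-daily watering.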

Lolium perenne (LOLPE) [3] = assay: as above
In short: as §1

[4] = system: Alopecurus myosuroides (ALOMY); assay: as above
In short: as §1

[5] = system: Echinochloa crus-galli (ECHCG); assay: as above
In short: as §1

Avena fatua (AVEFA) [6] = assay: Pre-emergence herbicidal glasshouse test, percentage damage
In short: as §1

Lolium perenne (LOLPE) [7] = assay: as above
In short: as §1

[8] = system: Alopecurus myosuroides (ALOMY); assay: as above
In short: as §1

Setaria faberi (SETFA) [9] = assay: as above
In short: as §1

[10] = system: Echinochloa crus-galli (ECHCG); assay: as above
In short: as §1

SMILES	SETFA POST percentage damage (five point scale) (Setaria faberi (SETFA) [1])	AVEFA POST percentage damage (five point scale) (Avena fatua (AVEFA) [2])	LOLPE POST percentage damage (five point scale) (Lolium perenne (LOLPE) [3])	ALOMY POST percentage damage (five point scale) [4]	ECHCG POST percentage damage (five point scale) [5]	AVEFA PRE percentage damage (five point scale) (Avena fatua (AVEFA) [6])	LOLPE PRE percentage damage (five point scale) (Lolium perenne (LOLPE) [7])	ALOMY PRE percentage damage (five point scale) [8]	SETFA PRE percentage damage (five point scale) (Setaria faberi (SETFA) [9])	ECHCG PRE percentage damage (five point scale) [10]
CC#Cc1cc(C)c(C2=C(OC(=O)OC)CC3(CCN(C(=O)c4cccnn4)CC3)CC2=O)c(C)c1 [Compound P30]	5 (5=80-100%)	5 (5=80-100%)	5 (5=80-100%)	5 (5=80-100%)	5 (5=80-100%)	5 (5=80-100%)	5 (5=80-100%)	5 (5=80-100%)	5 (5=80-100%)	5 (5=80-100%)
CC#Cc1cc(C)c(C2C(=O)CC3(CCN(C(=O)c4cccc(C(F)(F)F)n4)CC3)CC2=O)c(C)c1 [Compound A91]	5 (5=80-100%)	5 (5=80-100%)	5 (5=80-100%)	5 (5=80-100%)	5 (5=80-100%)	5 (5=80-100%)	5 (5=80-100%)	5 (5=80-100%)	5 (5=80-100%)	5 (5=80-100%)
CC#Cc1cc(C)c(C2C(=O)CC3(CCN(C(=O)COC(F)(F)F)CC3)CC2=O)c(C)c1 [Compound A199]	5 (5=80-100%)	5 (5=80-100%)	5 (5=80-100%)	5 (5=80-100%)	5 (5=80-100%)	5 (5=80-100%)	5 (5=80-100%)	5 (5=80-100%)	5 (5=80-100%)	5 (5=80-100%)
CC#Cc1cc(C)c(C2C(=O)CC3(CCN(C(=O)CC#N)CC3)CC2=O)c(OC)c1 [Compound A80]	5 (5=80-100%)	5 (5=80-100%)	5 (5=80-100%)	5 (5=80-100%)	5 (5=80-100%)	5 (5=80-100%)	5 (5=80-100%)	5 (5=80-100%)	5 (5=80-100%)	5 (5=80-100%)
CC#Cc1cc(C)c(C2C(=O)CC3(CCN(C(=O)NC(=O)c4cccc(F)n4)CC3)CC2=O)c(C)c1 [Compound A159]	5 (5=80-100%)	5 (5=80-100%)	5 (5=80-100%)	5 (5=80-100%)	5 (5=80-100%)	5 (5=80-100%)	5 (5=80-100%)	5 (5=80-100%)	5 (5=80-100%)	5 (5=80-100%)
CC#Cc1cc(C)c(C2C(=O)CC3(CCN(C(=O)Nc4ncccc4C)CC3)CC2=O)c(C)c1 [Compound A177]	5 (5=80-100%)	5 (5=80-100%)	5 (5=80-100%)	4 (4=60-79%)	5 (5=80-100%)	4 (4=60-79%)	5 (5=80-100%)	2 (2=20-39%)	5 (5=80-100%)	5 (5=80-100%)
CC#Cc1cc(C)c(C2C(=O)CC3(CCN(C(=O)NC(C)(C)C)CC3)CC2=O)c(OC)c1 [Compound A76]	5 (5=80-100%)	5 (5=80-100%)	5 (5=80-100%)	5 (5=80-100%)	5 (5=80-100%)	5 (5=80-100%)	5 (5=80-100%)	5 (5=80-100%)	5 (5=80-100%)	5 (5=80-100%)
CC#Cc1cc(C)c(C2=C(OC(=O)OC)CC3(CCN(S(=O)(=O)C(F)(F)F)CC3)CC2=O)c(C)c1 [Compound P11]	5 (5=80-100%)	5 (5=80-100%)	4 (4=60-79%)	5 (5=80-100%)	5 (5=80-100%)	3 (3=40-59%)	5 (5=80-100%)	5 (5=80-100%)	5 (5=80-100%)	5 (5=80-100%)
CC#Cc1cc(C)c(C2=C(OC(=O)OC)CC3(CCN(C(=O)COC)CC3)CC2=O)c(C)c1 [Compound P19]	5 (5=80-100%)	5 (5=80-100%)	5 (5=80-100%)	5 (5=80-100%)	5 (5=80-100%)	5 (5=80-100%)	5 (5=80-100%)	5 (5=80-100%)	5 (5=80-100%)	5 (5=80-100%)
CC#Cc1cc(C)c(C2C(=O)CC3(CCN(C(=O)NC(=O)c4ccc(OC)cn4)CC3)CC2=O)c(C)c1 [Compound A176]	5 (5=80-100%)	2 (2=20-39%)	5 (5=80-100%)	5 (5=80-100%)	5 (5=80-100%)	2 (2=20-39%)	5 (5=80-100%)	3 (3=40-59%)	5 (5=80-100%)	5 (5=80-100%)
CC#Cc1cc(C)c(C2C(=O)CC3(CCN(C(=O)[C@H](C)O)CC3)CC2=O)c(C)c1 [Compound A155]	5 (5=80-100%)	5 (5=80-100%)	5 (5=80-100%)	5 (5=80-100%)	5 (5=80-100%)	5 (5=80-100%)	5 (5=80-100%)	5 (5=80-100%)	5 (5=80-100%)	5 (5=80-100%)
